# Measured values reported in paper PMC9326219, “Design and Synthesis of 1-O- and 6′-C-Modified Heparan Sulfate Trisaccharides as Human Endo-6-O-Sulfatase 1 Inhibitors” (Frontiers in Chemistry, 2022).
# Experiments:
# [1] = molecular target: T1, human endo-6-O-sulfatase 1 (Sulf-1) (Homo sapiens, UniProt Q8IWU6); assay: fluorescent 4-MUS hydrolysis assay with purified human Sulf-1; kinetic fit to competitive model (IC50 […]); type: biochemical
# T1 construct: gene SULF1
# [2] = molecular target: T1, human endo-6-O-sulfatase 1 (Sulf-1); assay: fluorescent 4-MUS hydrolysis assay with purified human Sulf-1; type: biochemical
Ki [1] [µM],IC50 [2] [µM],SMILES
0.14,–,"CO[C@@H]1O[C@@H](C(=O)O)[C@@H](O[C@H]2O[C@H](COS(N)(=O)=O)[C@@H](O[C@@H]3O[C@@H](C(=O)O)[C@@H](O)[C@H](O)[C@H]3OS(=O)(=O)O)[C@H](O)[C@H]2NS(=O)(=O)O)[C@H](O)[C@H]1OS(=O)(=O)O [compound 5, IdoA2OS-GlcNS6OSO2NH2-IdoA2OS-OMe]"
–,4.6,"CO[C@@H]1O[C@@H](C(=O)O)[C@@H](O[C@H]2O[C@H](CNS(=O)(=O)O)[C@@H](O[C@@H]3O[C@@H](C(=O)O)[C@@H](O)[C@H](O)[C@H]3OS(=O)(=O)O)[C@H](O)[C@H]2NS(=O)(=O)O)[C@H](O)[C@H]1OS(=O)(=O)O [compound 6, IdoA2OS-GlcNS6NS-IdoA2OS-OMe]"
